Data taken from ChEMBL document CHEMBL4706689, “Synthesis and antifungal activity of polycyclic pyridone derivatives with anti-hyphal and biofilm formation activity against Candida albicans” (2021).
Active and inactive are the calls of the source. No cut-off for these calls is given here.

Experiments:
Candida albicans [1] = assay: Inhibition of hyphal formation in Candida albicans SC5314 cultured in spider medium assessed as reduction in hyphal length at 25 ug/ml relative to control; type: functional
Candida albicans [2] = assay: Inhibition of biofilm formation in Candida albicans SC5314 at 25 ug/ml by XTT assay relative to control; type: functional
Candida albicans [3] = assay: Inhibition of hyphal formation in Candida albicans SC5314 cultured in spider medium assessed as reduction in hyphal length; type: functional, organism-based; conditions: dose 3.12-25 µg/ml
Candida albicans [4] = assay: Inhibition of biofilm formation in Candida albicans SC5314 at 6.25 to 25 ug/ml by XTT assay; type: functional, organism-based; conditions: dose 6.25-25 µg/ml
Candida albicans [5] = assay: Inhibition of biofilm formation in Candida albicans SC5314 by XTT assay; type: functional, organism-based

Row | Compound | inhibition at 25 µg/mL (Candida albicans [1]) [%] | inhibition at 25 µg/mL (Candida albicans [2]) [%] | inhibition (Candida albicans [3]) | inhibition (Candida albicans [4]) | inhibition (Candida albicans [5])
1 | CC(C)=CCC1(C)C=Cc2c(c(-c3ccc(C)cc3)c(Cl)[nH]c2=O)O1 (stereo not drawn) | 30 | – | – | – | –
2 | Cc1ccc(-c2c(Cl)[nH]c(=O)c3c2OC(C)(C)C=C3)cc1 | 30 | – | – | – | –
3 | CC1(C)C=Cc2c(c(-c3ccccc3)c(Cl)[nH]c2=O)O1 | 30 | – | – | – | –
4 | CC1(C)C=Cc2c(c(-c3ccccc3)c[nH]c2=O)O1 | > 50 | 18.7 | Dose-dependent effect | – | –
5 | CC(C)=CC[C@]1(C)Oc2c(-c3ccc(C)cc3)c(Cl)[nH]c(=O)c2[C@H]2c3ccccc3OC[C@H]21 | 30 | – | – | – | –
6 | Cc1ccc(-c2c[nH]c(=O)c3c2OC(C)(C)C=C3)cc1 | > 50 | 17.9 | Dose-dependent effect | – | –
7 | CC1(C)C=Cc2c(c(-c3cccs3)c(Cl)[nH]c2=O)O1 | > 50 | – | Dose-dependent effect | Active | –
8 | C[C@H]1Oc2c(-c3cccs3)c(Cl)[nH]c(=O)c2[C@H]2c3ccccc3OC[C@H]21 | 30 | – | – | – | –
9 | C[C@H]1CC[C@H]2[C@H](C1)c1c(c(-c3cccs3)c(Cl)[nH]c1=O)OC2(C)C | 30 | – | – | – | –
10 | Cc1ccc(-c2c(Cl)[nH]c(=O)c3c2O[C@H](C)[C@@H]2COc4ccccc4[C@H]32)cc1 | > 50 | – | Dose-dependent effect | – | inactive
